# Source: PubChem BioAssay AID330 (DTP/NCI, 2004)
# Several values for one entry are separate records, joined by “and”; a condition that tells them apart may be missing. Identical values can stand only once. Toxic doses and inconclusive results are not listed.
# System: P388 leukemia ip, CD2F1 mice, survival T/C
# Test: NCI In Vivo Anticancer Drug Screen. Data for tumor model P388 Leukemia (intraperitoneal) in CD2F1 (CDF1) mice
# Details: endpoint: median survival time, higher = longer survival
# In short: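 Mice carrying the transplanted tumor received test compound or vehicle. Survival was recorded in each group, and the value is the treated-group measurement divided by that of the vehicle-treated control group.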
# [1] = dose: 60.0 mg/kg/injection, schedule: Q01DX005 (ip), vehicle: saline with Tween-80
# [2] = dose: 120.0 mg/kg/injection, schedule: Q01DX005 (ip), vehicle: saline with Tween-80
# [3] = dose: 50.0 mg/kg/injection, schedule: Q01DX005 (ip), vehicle: saline with Tween-80
# [4] = dose: 100.0 mg/kg/injection, schedule: Q01DX005 (ip), vehicle: saline with Tween-80
# [5] = dose: 100.0 mg/kg/injection, schedule: Q04DX003 (ip), vehicle: saline with Tween-80
# [6] = dose: 6.25 mg/kg/injection, schedule: Q01DX009 (ip), vehicle: saline
# [7] = dose: 12.5 mg/kg/injection, schedule: Q01DX009 (ip), vehicle: saline
# [8] = dose: 25.0 mg/kg/injection, schedule: Q01DX009 (ip), vehicle: saline
# [9] = dose: 50.0 mg/kg/injection, schedule: Q01DX009 (ip), vehicle: Klucel (hydroxypropylcellulose) (HPC)
# [10] = dose: 100.0 mg/kg/injection, schedule: Q01DX009 (ip), vehicle: Klucel (hydroxypropylcellulose) (HPC)
# [11] = dose: 240.0 mg/kg/injection, schedule: Q01DX005 (ip), vehicle: saline with Tween-80
# [12] = dose: 60.0 mg/kg/injection, schedule: Q01DX005 (ip), vehicle: saline
# [13] = dose: 120.0 mg/kg/injection, schedule: Q01DX005 (ip), vehicle: saline
# [14] = dose: 240.0 mg/kg/injection, schedule: Q01DX005 (ip), vehicle: saline
# [15] = dose: 100.0 mg/kg/injection, schedule: Q04DX003 (ip), vehicle: Klucel (hydroxypropylcellulose) (HPC)
# [16] = dose: 100.0 mg/kg/injection, schedule: Q01DX001 (ip), vehicle: saline
structure (smiles),measurement,setting,value
O=c1oc2nc(-c3ccccc3)[nH]c(=O)c2c2c1CCCC2,T/C,"dose: 15.0 mg/kg/injection, schedule: Q01DX005 (ip), vehicle: Klucel (hydroxypropylcellulose) (HPC)",92 % of control
same,T/C,"dose: 30.0 mg/kg/injection, schedule: Q01DX005 (ip), vehicle: Klucel (hydroxypropylcellulose) (HPC)",86 % of control
CC12CC3CN(C(=O)c4ccccc4)CCC3CC1=Nc1ccccc12 (configuration not stated),T/C,"dose: 25.0 mg/kg/injection, schedule: Q04DX002 (ip), vehicle: saline with Tween-80",100 % of control
same,T/C,"dose: 50.0 mg/kg/injection, schedule: Q04DX002 (ip), vehicle: saline with Tween-80",103 % of control
same,T/C,"dose: 100.0 mg/kg/injection, schedule: Q04DX002 (ip), vehicle: saline with Tween-80",94 % of control
same,T/C,"dose: 200.0 mg/kg/injection, schedule: Q04DX002 (ip), vehicle: saline with Tween-80",86 % of control
CCOC(=O)C1=C(C(=O)c2ccc(OC)cc2)C(c2ccc(OC)c(OC)c2)C(C(=O)c2ccc(OC)cc2)=C(C(=O)OCC)N1,T/C,[1],90 % of control
same,T/C,[2],91 % of control
Cc1ccc(C[n+]2cc3ccccc3cc2/C=N\O)cc1,T/C,[3],98 % of control
same,T/C,[4],109 % of control
CCCCCCCCCCCCCCCCOP(=O)(O)OCCCCCCCCCCCCCCCC,T/C,[5],88 % of control
same,T/C,"dose: 200.0 mg/kg/injection, schedule: Q04DX003 (ip), vehicle: saline with Tween-80",90 % of control
[N-]=[N+]=Nc1nnc(-c2ccccc2)c(=O)[nH]1,T/C,"dose: 100.0 mg/kg/injection, schedule: Q04DX002 (ip), vehicle: saline",101 % of control
same,T/C,"dose: 200.0 mg/kg/injection, schedule: Q04DX002 (ip), vehicle: saline",101 % of control
same,T/C,"dose: 400.0 mg/kg/injection, schedule: Q04DX002 (ip), vehicle: saline",96 % of control
CC(=O)OCC(O)CS(=O)c1ccc(C)cc1 (configuration not stated),T/C,"dose: 25.0 mg/kg/injection, schedule: Q01DX009 (ip), vehicle: saline with Tween-80",100 % of control
same,T/C,"dose: 50.0 mg/kg/injection, schedule: Q01DX009 (ip), vehicle: saline with Tween-80",99 % of control
same,T/C,"dose: 100.0 mg/kg/injection, schedule: Q01DX009 (ip), vehicle: saline with Tween-80",98 % of control
O=c1[nH]c(=O)c2sc3ncccc3c2[nH]1,T/C,[6],119 % of control
same,T/C,[7],100 % of control
same,T/C,[8],101 % of control
C[N+]12CN3CN(CP(C3)C1)C2,T/C,[6],99 % of control
same,T/C,[7],100 % of control
same,T/C,[8],101 % of control
Cn1c(=O)n2n(c1=O)C1C3C4C5C3C13COCC53C42 (configuration not stated),T/C,[9],97 % of control
same,T/C,[10],97 % of control
same,T/C,"dose: 200.0 mg/kg/injection, schedule: Q01DX009 (ip), vehicle: Klucel (hydroxypropylcellulose) (HPC)",100 % of control
Nc1ccc(N=Nc2cccc3c2Oc2ccccc2O3)c(N)n1,T/C,[3],98 % of control
same,T/C,[4],91 % of control
same,T/C,"dose: 200.0 mg/kg/injection, schedule: Q01DX005 (ip), vehicle: saline with Tween-80",105 % of control
CN(C)N1C(=O)SCC(c2ccccc2)(c2ccccc2)C1=O,T/C,"dose: 60.0 mg/kg/injection, schedule: Q01DX005 (ip), vehicle: Klucel (hydroxypropylcellulose) (HPC)",97 % of control
same,T/C,"dose: 120.0 mg/kg/injection, schedule: Q01DX005 (ip), vehicle: Klucel (hydroxypropylcellulose) (HPC)",96 % of control
same,T/C,"dose: 240.0 mg/kg/injection, schedule: Q01DX005 (ip), vehicle: Klucel (hydroxypropylcellulose) (HPC)",86 % of control
CC1(C)CN(Cc2ccccc2)C1(C)C#N (configuration not stated),T/C,[1],100 % of control
same,T/C,[2],105 % of control
NNc1ncnc2c1ccn2C1OC(CO)C(O)C1O (configuration not stated),T/C,"dose: 6.25 mg/kg/injection, schedule: Q01DX009 (ip), vehicle: saline with Tween-80",108 % of control
same,T/C,"dose: 12.5 mg/kg/injection, schedule: Q01DX009 (ip), vehicle: saline with Tween-80",113 % of control
same,T/C,"dose: 37.5 mg/kg/injection, schedule: Q01DX009 (ip), vehicle: saline with Tween-80",118 % of control
Brc1ccccc1C(Nc1nncs1)Nc1nncs1,T/C,[1],117 % of control and 123 % of control
same,T/C,[11],154 % of control and 156 % of control
same,T/C,"dose: 480.0 mg/kg/injection, schedule: Q01DX005 (ip), vehicle: saline with Tween-80",169 % of control
COC(/C=N/O)c1ccccc1 (configuration not stated),T/C,"dose: 25.0 mg/kg/injection, schedule: Q04DX003 (ip), vehicle: saline with Tween-80",100 % of control
same,T/C,"dose: 25.0 mg/kg/injection, schedule: Q04DX003 (ip), vehicle: saline",109 % of control
same,T/C,"dose: 50.0 mg/kg/injection, schedule: Q04DX003 (ip), vehicle: saline with Tween-80",100 % of control and 94 % of control
same,T/C,"dose: 50.0 mg/kg/injection, schedule: Q04DX003 (ip), vehicle: saline",101 % of control
same,T/C,[5],106 % of control and 87 % of control
same,T/C,"dose: 100.0 mg/kg/injection, schedule: Q04DX003 (ip), vehicle: saline",101 % of control
same,T/C,"dose: 200.0 mg/kg/injection, schedule: Q04DX003 (ip), vehicle: saline",105 % of control
COc1nc(NC2OC(CO)C(O)C(O)C2O)c(Cl)c(=O)[nH]1 (configuration not stated),T/C,[12],97 % of control
same,T/C,[13],94 % of control
same,T/C,[14],102 % of control
N=C(N)c1nn[nH]n1,T/C,"dose: 12.5 mg/kg/injection, schedule: Q04DX003 (ip), vehicle: Klucel (hydroxypropylcellulose) (HPC)",100 % of control
same,T/C,"dose: 25.0 mg/kg/injection, schedule: Q04DX003 (ip), vehicle: Klucel (hydroxypropylcellulose) (HPC)",100 % of control
same,T/C,"dose: 50.0 mg/kg/injection, schedule: Q04DX003 (ip), vehicle: Klucel (hydroxypropylcellulose) (HPC)",97 % of control
same,T/C,[15],103 % of control
same,T/C,"dose: 200.0 mg/kg/injection, schedule: Q04DX003 (ip), vehicle: Klucel (hydroxypropylcellulose) (HPC)",100 % of control
O=Cc1ccc(COCCO)o1,T/C,[1],105 % of control
same,T/C,[2],102 % of control
same,T/C,[11],102 % of control
CC1(C)OCC(C2OC(O)C3OC(C)(C)OC32)O1 (configuration not stated),T/C,"dose: 50.0 mg/kg/injection, schedule: Q01DX005 (ip), vehicle: saline",100 % of control
same,T/C,"dose: 100.0 mg/kg/injection, schedule: Q01DX005 (ip), vehicle: saline",101 % of control
same,T/C,"dose: 200.0 mg/kg/injection, schedule: Q01DX005 (ip), vehicle: saline",107 % of control
CC(=O)c1cccc(OCC(O)CN2CCN(c3ccc(C)cc3)CC2)c1 (configuration not stated),T/C,[15],107 % of control
same,T/C,"dose: 400.0 mg/kg/injection, schedule: Q04DX003 (ip), vehicle: Klucel (hydroxypropylcellulose) (HPC)",91 % of control
O/N=C(\CNC/C(=N\O)NO)NO,T/C,"dose: 50.0 mg/kg/injection, schedule: Q01DX005 (ip), vehicle: Klucel (hydroxypropylcellulose) (HPC)",90 % of control
same,T/C,"dose: 100.0 mg/kg/injection, schedule: Q01DX005 (ip), vehicle: Klucel (hydroxypropylcellulose) (HPC)",97 % of control
same,T/C,"dose: 200.0 mg/kg/injection, schedule: Q01DX005 (ip), vehicle: Klucel (hydroxypropylcellulose) (HPC)",93 % of control
NC(=Nc1ccccc1)SCCCCCCSC(N)=Nc1ccccc1,T/C,"dose: 25.0 mg/kg/injection, schedule: Q01DX009 (ip), vehicle: Klucel (hydroxypropylcellulose) (HPC)",100 % of control
same,T/C,[9],102 % of control
same,T/C,[10],100 % of control
Nc1nc2c(nnn2C2OC(COP(=O)(O)OP(=O)(O)O)C(O)C2O)c(=O)[nH]1 (configuration not stated),T/C,"dose: 12.5 mg/kg/injection, schedule: Q01DX001 (ip), vehicle: saline",110 % of control
same,T/C,"dose: 25.0 mg/kg/injection, schedule: Q01DX001 (ip), vehicle: saline",110 % of control
same,T/C,"dose: 50.0 mg/kg/injection, schedule: Q01DX001 (ip), vehicle: saline",116 % of control
same,T/C,[16],117 % of control
CS(C)(NC(N)=O)OS(=O)(=O)O,T/C,[12],98 % of control
same,T/C,[13],98 % of control
same,T/C,[14],101 % of control
CCOC(=O)C(c1ccccc1)C(NC(C)=O)(C(=O)OCC)C(=O)OCC (configuration not stated),T/C,[1],102 % of control
same,T/C,[2],102 % of control
same,T/C,[11],105 % of control
CCC1(C)C(=O)C(C)(CC)C1=O (configuration not stated),T/C,[1],105 % of control
same,T/C,[2],107 % of control
same,T/C,[11],116 % of control
COCc1cccc2ccnc(COC)c12,T/C,[16],100 % of control
same,T/C,"dose: 200.0 mg/kg/injection, schedule: Q01DX001 (ip), vehicle: saline",102 % of control
same,T/C,"dose: 400.0 mg/kg/injection, schedule: Q01DX001 (ip), vehicle: saline",103 % of control
CCCCCCCCCCCC[N+](C)([O-])Cc1ccccc1 (configuration not stated),T/C,[9],89 % of control
